Source: patent US10251396B2, “Amide compound and use of same for noxious arthropod control” (SUMITOMO CHEMICAL COMPANY, LIMITED, priority 2014, dated 2019)

How the values were obtained:
Format in all cases: in vivo
[1] = test system: Blattella germanica; test: Test Example 1: spray knockdown test on Blattella germanica; conditions: 0.25 h; 2.0% w/v in isopropyl alcohol/kerosine=1/9, 1.5 mL sprayed, ten Blattella germanica, within 15 minutes; read-out: knockdown ratio of test vermin within 15 minutes
Protocol: A formulation containing each of the compounds (1), (3), (4), (5), (8), (11), (12) and (21) prepared in accordance with Formulation Example 7 was diluted with an isopropyl alcohol/kerosine=1/9 mixed liquid so that the concentration of each compound became 2.0% w/v, to obtain a diluted solution. Ten vermin Blattella germanica (male female each five vermin) were allowed to release in a container for a test in which a butter was applied on an inner wall (diameter 8.75 cm, height 7.5 cm, bottom face covered with 16 mesh wire net), and the container was arranged on a bottom of a chamber for a test (bottom surface: 46 cm×46 cm, height: 70 cm). From a height of 60 cm from an upper surface of the container, 1.5 mL of the diluted solution was sprayed using a spray gun (spraying pressure 0.42 kg/cm^2). Thirty seconds after spraying, the container was taken out from the chamber for a test, the number of vermin which had been knocked down was counted for 15 minutes with time, and a knockdown ratio was obtained. The knockdown ratio was calculated by the following expression. Knockdown ratio (%)=(number of knocked down vermin/number of test vermin)×100 As a result, the knockdown ratio of test vermin within 15 minutes was 80% or more, in treatment with the compounds (1), (3), (4), (5), (8), (11), (12) and (21), respectively.

[2] = test system: Aphis gossypii; test: Test Example 5: foliar spray test on Aphis gossypii on cucumber; conditions: 500 ppm diluted solution, 20 mL/cup sprayed to cucumber, six days after spraying
Protocol: A formulation containing the compound (4) prepared in accordance with Formulation Example 15 was diluted with water so that the concentration became 500 ppm to obtain a diluted solution. On the other hand, a cucumber was planted in a polyethylene cup, and grown until a first true leaf developed. About 20 vermin of Aphis gossypii was parasitized therein. After one day, the diluted solution was sprayed to the cucumber at a ratio of 20 mL/cup. Six days after spraying, the number of live or dead vermin of Aphis gossypii was investigated, and a controlling value was obtained by the following expression. Controlling value (%)={1−(Cb×Tai)/(Cai×Tb)}×100 In addition, letters in the expression indicate the following meanings.

[3] = test system: Plutella xylostella; test: Test Example 6: cabbage foliar spray test on second instar larvae of Plutella xylostella; conditions: 500 ppm diluted solution, 20 mL/cup sprayed to cabbage, 25° C., after 5 days
Protocol: A formulation containing the compound (21) prepared in accordance with Formulation Example 15 was diluted with water so that the concentration became 500 ppm, to prepare a diluted solution. On the other hand, the diluted solution was sprayed to a cabbage at a stage of three leaves planted in a polyethylene cup at a ratio of 20 mL/cup. After spraying, the plant was air-dried, foliage portions were cut and accommodated into a 50 mL cup, 5 second instar larvae of Plutella xylostella were released, and the cup was covered. This was stored at 25° C., and after 5 days, the number of dead vermin was counted, and a dead vermin ratio was obtained by the following expression.

Row | Structure (SMILES) | pest or weed control at 2 % strength [1] [%] | controlling value [2] [%] | dead vermin ratio [3] [%]
1 | CC(C)CNC(=O)c1cc(COCc2ccccc2)on1 [compound (1)] | ≥ 80 |  | 
2 | C=C(C)CNC(=O)c1cc(COCc2ccccc2)on1 [compound (3)] | ≥ 80 |  | 
3 | COC(C)CNC(=O)c1cc(COCc2ccccc2)on1 (stereo not shown) [compound (4)] | ≥ 80 | ≥ 90 | 
4 | COCCNC(=O)c1cc(COCc2ccccc2)on1 [compound (5)] | ≥ 80 |  | 
5 | COC(C)(C)CNC(=O)c1cc(COCc2ccccc2)on1 [compound (8)] | ≥ 80 |  | 
6 | COC(CNC(=O)c1cc(COCc2ccccc2)on1)OC [compound (11)] | ≥ 80 |  | 
7 | COCC(COC)NC(=O)c1cc(COCc2ccccc2)on1 [compound (12)] | ≥ 80 |  | 
8 | COC(C)CNC(=O)c1cc(COCc2ccc3ccccc3c2)on1 (stereo not shown) [compound (21)] | ≥ 80 |  | ≥ 80
